Results from patent US9493486B2, “Diazaspirocycloalkane and azaspirocycloalkane” (Hoffmann-La Roche Inc., priority 2012, dated 2016).

Biological target: ATX (human His-tagged) (Homo sapiens (Human), UniProt Q13822)
Test: Human ATX enzyme inhibition assay (fluorescence quenching, MR121 substrate)
Type: biochemical
Conditions: 30 nM ATX, 1 μM MR121 substrate, 30° C.
Description: Human ATX Enzyme Inhibition Assay
Assay working solutions were made as follows:

SMILES	IC50 [nM]
O=C(NCc1cc(Cl)cc(Cl)c1)N1CCC2(CC1)CN(C(=O)c1ccc3[nH]nnc3c1)C2 [Example 9, 2-(1H-Benzo[d][1,2,3]triazole-5-carbonyl)-N-(3,5-dichlorobenzyl)-2,7-diazaspiro[3.5]nonane-7-carboxamide]	1060
O=C(OCc1cncc(Cl)c1)N1CCC2(CC1)CN(C(=O)c1ccc3[nH]nnc3c1)C2 [Example 12.08, (5-chloropyridin-3-yl)methyl 2-(1H-benzo[d][1,2,3]triazole-5-carbonyl)-2,7-diazaspiro[3.5]nonane-7-carboxylate]	3830
CS(=O)(=O)c1cc(Cl)cc(COC(=O)N2CCC3(CC2)CN(C(=O)c2cccc(S(N)(=O)=O)c2)C3)c1 [Example 1.18, 3-chloro-5-(methylsulfonyl)benzyl 2-(3-sulfamoylbenzoyl)-2,7-diazaspiro[3.5]nonane-7-carboxylate]	625
CC(C)c1cc(Cl)ccc1OCC(=O)N1CCC2(CC1)CN(C(=O)C1CCc3[nH]nnc3C1)C2 (stereo not drawn) [Example 1.27, 2-(4-chloro-2-isopropylphenoxy)-1-(2-(4,5,6,7-tetrahydro-1H-benzo[d][1,2,3]triazole-5-carbonyl)-2,7-diazaspiro[3.5]nonan-7-yl)ethanone]	41
O=C(OCc1ccc(OC(F)(F)F)cc1F)N1CCC2(CC1)CN(C(=O)N1CCc3[nH]nnc3C1)C2 [Example 13.01, 2-fluoro-4-(trifluoromethoxy)benzyl 2-(4,5,6,7-tetrahydro-1H-[1,2,3]triazolo[4,5-c]pyridine-5-carbonyl)-2,7-diazaspiro[3.5]nonane-7-carboxylate]	1
O=C(c1ccc2[nH]nnc2c1)N1CCC2(CCN(C(=O)c3cc4cc(Cl)ccc4o3)C2)C1 (stereo not drawn) [Example 6.7, (7-(1H-benzo[d][1,2,3]triazole-5-carbonyl)-2,7-diazaspiro[4.4]nonan-2-yl)(5-chlorobenzofuran-2-yl)methanone]	3930
